Data: PMC6278313
Positions count from the first letter of the chain named. Where two headings read alike, the source gives them in different places. Each block holds one compound with its values, some of them ahead of it.

How the values were obtained:
[1] = tested on: all tested receptors, transporters, and binding sites; test: NIMH-PDSP radioligand binding screen, whole panel; settings: 10 μM; except the sites named for 17 and 27
COX-1 [2] = target: T1, COX-1 (Homo sapiens, UniProt P23219); test: COX-1 inhibition, human whole blood (Thromboxane B2 EIA)
T1 sequence (P23219 24-599): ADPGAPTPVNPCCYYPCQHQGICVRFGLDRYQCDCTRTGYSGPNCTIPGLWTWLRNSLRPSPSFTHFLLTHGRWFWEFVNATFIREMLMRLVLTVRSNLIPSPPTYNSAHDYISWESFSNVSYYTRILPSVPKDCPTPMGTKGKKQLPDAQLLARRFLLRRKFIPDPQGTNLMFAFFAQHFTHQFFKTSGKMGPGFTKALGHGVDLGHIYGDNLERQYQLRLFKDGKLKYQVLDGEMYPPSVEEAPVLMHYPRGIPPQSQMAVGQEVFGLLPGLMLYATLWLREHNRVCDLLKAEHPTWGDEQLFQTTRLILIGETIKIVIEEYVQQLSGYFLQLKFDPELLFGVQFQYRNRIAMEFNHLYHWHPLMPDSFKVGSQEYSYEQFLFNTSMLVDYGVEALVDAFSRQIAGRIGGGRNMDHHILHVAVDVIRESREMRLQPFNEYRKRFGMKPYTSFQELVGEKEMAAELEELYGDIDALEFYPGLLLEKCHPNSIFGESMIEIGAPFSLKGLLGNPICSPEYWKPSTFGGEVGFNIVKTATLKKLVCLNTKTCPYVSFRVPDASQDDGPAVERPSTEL

COX-1 [3] = target: T1, COX-1; design: endogenous in cells; host or cells: fresh human whole blood; settings: footnote c; SE <15%; read-out: IC50 COX-1 Human WB (literature); cited from earlier work
human COX-2 = settings: cited from earlier work; for Selectivity vs. COX-1: human whole blood, COX-2 over COX-1
COX-2 [4] = target: T2, COX-2 (Homo sapiens, UniProt P35354); test: COX-2 inhibition, human whole blood (Prostaglandin E2 EIA); assay type: cell-based
T2 construct: endogenous in cells; host or cells: fresh human whole blood
T2 sequence (P35354 18-604): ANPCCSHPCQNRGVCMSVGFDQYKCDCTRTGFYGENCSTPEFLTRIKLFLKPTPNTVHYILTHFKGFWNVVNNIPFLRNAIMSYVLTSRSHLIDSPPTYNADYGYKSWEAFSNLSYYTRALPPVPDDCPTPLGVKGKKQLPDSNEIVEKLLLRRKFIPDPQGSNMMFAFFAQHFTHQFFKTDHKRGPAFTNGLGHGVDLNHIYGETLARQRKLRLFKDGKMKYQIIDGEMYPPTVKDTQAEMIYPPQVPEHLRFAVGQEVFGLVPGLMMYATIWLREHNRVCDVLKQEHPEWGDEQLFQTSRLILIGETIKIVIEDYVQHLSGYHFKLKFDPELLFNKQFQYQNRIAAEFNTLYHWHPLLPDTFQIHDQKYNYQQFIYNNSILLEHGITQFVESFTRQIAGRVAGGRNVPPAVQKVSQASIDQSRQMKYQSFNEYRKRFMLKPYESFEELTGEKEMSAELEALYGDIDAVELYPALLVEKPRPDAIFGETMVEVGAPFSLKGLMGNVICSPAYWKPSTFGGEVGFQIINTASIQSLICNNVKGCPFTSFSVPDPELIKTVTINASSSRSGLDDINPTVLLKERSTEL

COX-1 [5] = target: T3, COX-1 (Macaca mulatta, UniProt F6S984); test: COX-1 inhibition, monkey whole blood (Thromboxane B2 EIA)
T3 sequence (F6S984 25-599): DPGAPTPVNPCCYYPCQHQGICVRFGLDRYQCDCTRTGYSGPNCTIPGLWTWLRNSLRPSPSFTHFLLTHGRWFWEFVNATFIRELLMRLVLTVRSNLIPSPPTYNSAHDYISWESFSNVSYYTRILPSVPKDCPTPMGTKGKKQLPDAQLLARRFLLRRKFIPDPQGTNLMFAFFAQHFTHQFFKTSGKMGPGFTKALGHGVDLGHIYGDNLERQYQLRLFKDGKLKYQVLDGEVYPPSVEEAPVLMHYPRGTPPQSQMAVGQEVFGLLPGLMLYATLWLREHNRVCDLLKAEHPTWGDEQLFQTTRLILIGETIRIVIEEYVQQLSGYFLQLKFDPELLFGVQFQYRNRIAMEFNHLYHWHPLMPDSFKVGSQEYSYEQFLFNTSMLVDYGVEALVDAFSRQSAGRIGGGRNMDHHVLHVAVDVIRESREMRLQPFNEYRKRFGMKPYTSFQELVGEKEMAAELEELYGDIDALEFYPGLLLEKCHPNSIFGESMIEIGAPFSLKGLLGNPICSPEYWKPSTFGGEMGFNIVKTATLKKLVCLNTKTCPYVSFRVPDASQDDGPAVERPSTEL

COX-2 [6] = target: T4, COX-2 (Macaca mulatta, UniProt F7BWZ9); test: COX-2 inhibition, monkey whole blood (Prostaglandin E2 EIA)
T4 sequence (F7BWZ9 18-604): T2 sequence (P35354 18-604) with H7Y, F49L, A101V, L150F, S163T, N191K, A208D, R211H, T363N, G570R

benzodiazepine (BzP) = test: NIMH-PDSP radioligand binding screen, benzodiazepine site; design: species or system rat; settings: 10 μM
COX-2 [7] = settings: cited from earlier work
COX-2 [8] = target: COX-2; design: method as in literature cited in the text (18-30); settings: cited from earlier work
[9] = Measured logD of radioligands (n-octanol / sodium phosphate buffer); assay type: physicochemical; settings: n-octanol / sodium phosphate buffer 0.1 M pH 7.4; γ-counter
Experimental: cLogD (at pH 7.4) values were computed with Pallas for Windows software version 3.8 in default mode (CompuDrug International; Bal Harbor, FL, USA). The logD values of [^11C]17, [^18F]20, and [d2-^18F]27 were measured by a method that we have described previously. The radioactivity contents in the n-octanol and sodium phosphate buffer (0.1 M; pH 7.4) phases were determined with a γ-counter.

[10] = Table 1, human whole blood COX-2, SEM <15%, read-out: HWB IC50
[11] = footnote c, SE <15%, read-out: IC50 COX-2 Human WB (literature) (converted)
[12] = mean ± SD, triplicate unless d n = 1, e n = 2, read-out: IC50 COX-2 Human WB
[13] = Chart 1, PET in vivo, ref literature cited in the text (18-30)
[14] = Chart 1, ref literature cited in the text (18-30)

inhibition of radioligand binding at all tested receptors, transporters, and binding sites [1]: less than 50%
IC50 (COX-1 [2]): > 10000 nM
melting point: 169.2 to 170.4 °C
SMILES: CCOc1cc(NCc2cccs2)nc(-c2ccc(S(C)(=O)=O)cc2)n1 [Compound 18, 6-Ethoxy-2-(4-(methylsulfonyl)phenyl)-N-(thiophen-2-ylmethyl)pyrimidin-4-amine]

IC50 (COX-1 [2]): > 1000 nM
melting point: 160 to 162.1 °C
IC50 (COX-2 [4]; [12]): 3.52 ± 0.43 nM
IC50 (COX-1 [5]): > 1000 nM
IC50 (COX-2 [6]): 52.3 ± 0.01 nM
SMILES: CCSc1cc(NCc2cccs2)nc(-c2ccc(S(C)(=O)=O)cc2)n1 [Compound 19, 6-Thioethyl-2-(4-(methylsulfonyl)phenyl)-N-(thiophen-2-ylmethyl)pyrimidin-4-amine]
IC50 (COX-1 [3]): > 10000 nM
IC50 (human COX-2; [10]): 1.2 nM
IC50 (human COX-2; [11]): 1.2 nM
Selectivity vs. COX-1 (human COX-2): >8403

melting point: 147.7 to 149.2 °C
IC50 (COX-2 [4]; [12]): 1.9 nM
IC50 (COX-2 [6]): 1.28 nM
SMILES: CS(=O)(=O)c1ccc(-c2nc(NCc3cccs3)cc(OCCF)n2)cc1 [Compound 20, 6-(2-Fluoroethoxy)-2-(4-(methylsulfonyl)phenyl)-N-(thiophen-2-ylmethyl)pyrimidin-4-amine]

IC50 (COX-1 [2]): > 1000 nM
melting point: 159.1 to 160.4 °C
IC50 (COX-2 [4]; [12]): 2.65 ± 0.45 nM
IC50 (COX-1 [5]): > 1000 nM
IC50 (COX-2 [6]): 4.83 ± 2.31 nM
SMILES: CSc1cc(NCc2cccs2)nc(-c2ccc(S(C)(=O)=O)cc2)n1 [Compound 21, 6-Thiomethyl-2-(4-(methylsulfonyl)phenyl)-N-(thiophen-2-ylmethyl)pyrimidin-4-amine]

IC50 (COX-1 [2]): > 10000 nM
melting point: 170 to 171.2 °C
SMILES: CS(=O)(=O)c1ccc(-c2nc(Cl)cc(NCc3cccs3)n2)cc1 [Compound 25, 6-Chloro-2-(4-(methylsulfonyl)phenyl)-N-(thiophen-2-ylmethyl)pyrimidin-4-amine]
IC50 (COX-1 [3]): > 100000 nM
IC50 (human COX-2; [10]): 1.2 nM
IC50 (human COX-2; [11]): 1.2 nM

melting point: 261.7 to 263.2 °C
SMILES: CS(=O)(=O)c1ccc(-c2nc(O)cc(NCc3cccs3)n2)cc1 [Compound 26, 2-(4-(Methylsulfonyl)phenyl)-6-(thiophen-2-yl-methylamino)pyrimidin-4-ol]
IC50 (COX-1 [3]): > 100000 nM
inhibitory potency for COX-2 (human COX-2): low inhibitory potency

inhibition of radioligand binding at all tested receptors, transporters, and binding sites [1]: less than 50%
IC50 (COX-1 [2]): > 1000 nM
IC50 (COX-2 [4]; [12]): 2.26 ± 0.63 nM
IC50 (COX-1 [5]): > 1000 nM
IC50 (COX-2 [6]): 2.26 ± 0.45 nM
inhibition of radioligand binding at benzodiazepine (BzP) (benzodiazepine (BzP)): 50.8%
SMILES: CS(=O)(=O)c1ccc(-c2nc(NCc3cccs3)cc(OCF)n2)cc1 [Compound 27, 6-(2-Fluoromethoxy)-2-(4-(methylsulfonyl)phenyl)-N-(thiophen-2-yl-methyl)pyrimidin-4-amine]

melting point: 130.4 to 131.4 °C
IC50 (COX-2 [4]; [12]): 2.5 nM
SMILES: CS(=O)(=O)c1ccc(-c2nc(F)cc(NCc3cccs3)n2)cc1 [Compound 29, 6-Fluoro-2-(4-(methylsulfonyl)phenyl)-N-(thiophen-2-ylmethyl)pyrimidin-4-amine]

inhibition of radioligand binding at all tested receptors, transporters, and binding sites [1]: less than 50%
IC50 (COX-2 [4]; [12]): > 1000 nM
SMILES: CN(Cc1cccs1)c1cc(Cl)nc(-c2ccc(S(C)(=O)=O)cc2)n1 [Compound 30, 6-Chloro-N-methyl-2-(4-(methylsulfonyl)phenyl)-N-(thiophen-2-ylmethyl)pyrimidin-4-amine]

logD [9]: 3.74 ± 0.02
SMILES: CS(=O)(=O)c1ccc(-c2nc(NCc3cccs3)cc(O[11CH3])n2)cc1 [[^11C]17]

logD [9]: 2.94 ± 0.32
SMILES: CS(=O)(=O)c1ccc(-c2nc(NCc3cccs3)cc(OCC[18F])n2)cc1 [[^18F]20]

logD [9]: 3.7 ± 0.12
SMILES: [2H]C([2H])([18F])Oc1cc(NCc2cccs2)nc(-c2ccc(S(C)(=O)=O)cc2)n1 [[d2-^18F]27]

The next lines start with the compound.

SMILES: COc1cc(NCc2ccccc2)nc(-c2ccc(S(C)(=O)=O)cc2)n1 [Compound 22, N-Benzyl-6-methoxy-2-(4-(methylsulfonyl)phenyl)pyrimidin-4-amine]
IC50 (COX-1 [3]): > 100000 nM
Selectivity vs. COX-1 (human COX-2): >19,646
IC50 (human COX-2; read-out: HWB IC50): 5.1 nM
IC50 (human COX-2; read-out: IC50 COX-2 Human WB (literature) (converted)): 5.1 nM
IC50 (COX-1 [2]): > 1000 nM
melting point: 133.4 to 134.6 °C
IC50 (COX-2 [4]): 7.35 ± 1.35 nM
IC50 (COX-1 [5]): > 1000 nM
IC50 (COX-2 [6]): 14.6 ± 10.1 nM

SMILES: CS(=O)(=O)c1ccc(-c2nc(Cl)cc(NCc3ccccc3)n2)cc1 [Compound 23, N-Benzyl-6-chloro-2-(4-(methylsulfonyl)phenyl)pyrimidin-4-amine]
IC50 (COX-1 [3]): > 100000 nM
melting point: 130.4 to 131.4 °C

SMILES: CS(=O)(=O)c1ccc(-c2nc(O)cc(NCc3ccccc3)n2)cc1 [Compound 24, 6-(Benzylamino)-2-(4-(methylsulfonyl)phenyl)pyrimidin-4-ol]
IC50 (COX-1 [3]): > 100000 nM
inhibitory potency for COX-2 (human COX-2): low inhibitory potency
IC50 (COX-1 [2]): > 1000 nM
melting point: 287.9 to 289.2 °C
IC50 (COX-1 [5]): > 1000 nM
IC50 (COX-2 [6]): > 1000 nM

SMILES: [11CH3]Oc1ccc(-c2cc(C(F)(F)F)nn2-c2ccc(S(N)(=O)=O)cc2)cc1 [[^11C]2]
brain entry (COX-2 [7]; [13]): Low brain penetration

SMILES: [11CH3]S(=O)(=O)c1ccc(C2=C(c3ccccc3)C(=O)OC2)cc1 [[^11C]4, [^11C]rofecoxib]
brain entry (COX-2 [7]; in vivo): Low brain entry
brain entry (SUV) (COX-2 [7]; in vivo): 0.26 SUV
specific signal / specific binding in vivo (COX-2 [7]; in vivo): No specific binding in rat inflammatory models

SMILES: [11CH3]Oc1ccc(-c2cncn2-c2ccc(S(N)(=O)=O)cc2)cc1 [[^11C]6]
brain entry (COX-2 [7]; [13]): Low brain uptake
Ki (COX-2 [8]; [14]): 5 nM

SMILES: [11CH3]Oc1ccc(-c2c(-c3ccc(S(N)(=O)=O)cc3)[nH]c3ccccc23)cc1 [[^11C]7]
brain entry (COX-2 [7]; [13]): Low rat brain uptake

SMILES: Cc1ccc(-c2cc(C(F)(F)F)nn2-c2ccc(S(=O)(=O)Nc3cccc([18F])c3)cc2)cc1 [[^18F]3]
Ki (COX-2 [8]; [14]): 250 nM

SMILES: NS(=O)(=O)c1ccc(-c2c(-c3ccccc3)noc2C[18F])cc1 [[^18F]5]
brain entry (COX-2 [7]; in vivo): Some brain entry
defluorination in vivo (COX-2 [7]; in vivo): Rapidly defluorinated
specific signal / specific binding in vivo (COX-2 [7]; in vivo): No brain specific signal
Ki (COX-2 [8]): 2 nM
